Tested on: P12-Ichikawa
Assay: cell viability relative to DMSO control; higher = less cytotoxic
Details: 48 h
How it was run: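 Leukemia cells (NOMO1 or SEM, 500 cells/well; P12-Ichikawa, 1000 cells/well) were seeded in 5 μl in 1536-well plates after at least four passages of adaptation to each medium. They received library compounds in DMSO by pin dosing, 11 threefold points from 47 μM to 0.79 nM. Luminescence with CellTiter-Glo One was read after 48 h at 37°C. Viability is stated per plate relative to DMSO wells, with cell-free wells as background.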

[1] = HPLM + 10% dialyzed FBS, 0.000781 µM
[2] = HPLM + 10% dialyzed FBS, 0.00234 µM
[3] = HPLM + 10% dialyzed FBS, 0.00702 µM
[4] = HPLM + 10% dialyzed FBS, 0.0211 µM
[5] = HPLM + 10% dialyzed FBS, 0.0632 µM
[6] = HPLM + 10% dialyzed FBS, 0.19 µM
[7] = HPLM + 10% dialyzed FBS, 0.569 µM
[8] = HPLM + 10% dialyzed FBS, 1.71 µM
[9] = HPLM + 10% dialyzed FBS, 5.12 µM
[10] = HPLM + 10% dialyzed FBS, 15.4 µM
[11] = HPLM + 10% dialyzed FBS, 46.1 µM
[12] = RPMI 5 mM glucose + 10% FBS, 0.000781 µM
[13] = RPMI 5 mM glucose + 10% FBS, 0.00234 µM
[14] = RPMI 5 mM glucose + 10% FBS, 0.00702 µM
[15] = RPMI 5 mM glucose + 10% FBS, 0.0211 µM
[16] = RPMI 5 mM glucose + 10% FBS, 0.0632 µM
[17] = RPMI 5 mM glucose + 10% FBS, 0.19 µM
[18] = RPMI 5 mM glucose + 10% FBS, 0.569 µM
[19] = RPMI 5 mM glucose + 10% FBS, 1.71 µM
[20] = RPMI 5 mM glucose + 10% FBS, 5.12 µM
[21] = RPMI 5 mM glucose + 10% FBS, 15.4 µM
[22] = RPMI 5 mM glucose + 10% FBS, 46.1 µM
[23] = RPMI 5 mM glucose + 10% dialyzed FBS, 0.000781 µM
[24] = RPMI 5 mM glucose + 10% dialyzed FBS, 0.00234 µM
[25] = RPMI 5 mM glucose + 10% dialyzed FBS, 0.00702 µM
[26] = RPMI 5 mM glucose + 10% dialyzed FBS, 0.0211 µM
[27] = RPMI 5 mM glucose + 10% dialyzed FBS, 0.0632 µM
[28] = RPMI 5 mM glucose + 10% dialyzed FBS, 0.19 µM
[29] = RPMI 5 mM glucose + 10% dialyzed FBS, 0.569 µM
[30] = RPMI 5 mM glucose + 10% dialyzed FBS, 1.71 µM
[31] = RPMI 5 mM glucose + 10% dialyzed FBS, 5.12 µM
[32] = RPMI 5 mM glucose + 10% dialyzed FBS, 15.4 µM
[33] = RPMI 5 mM glucose + 10% dialyzed FBS, 46.1 µM

SMILES | cell viability [1] | cell viability [2] | cell viability [3] | cell viability [4] | cell viability [5] | cell viability [6] | cell viability [7] | cell viability [8] | cell viability [9] | cell viability [10] | cell viability [11] | cell viability [12] | cell viability [13] | cell viability [14] | cell viability [15] | cell viability [16] | cell viability [17] | cell viability [18] | cell viability [19] | cell viability [20] | cell viability [21] | cell viability [22] | cell viability [23] | cell viability [24] | cell viability [25] | cell viability [26] | cell viability [27] | cell viability [28] | cell viability [29] | cell viability [30] | cell viability [31] | cell viability [32] | cell viability [33]
CCCCC(C=O)NC(=O)C(CC(C)C)NC(=O)OCc1ccccc1 (centres undefined) | 90.9% | 94.3% | 95.8% | 90.7% | 95.6% | 91.8% | 91.1% | 85.7% | 80.6% | 81% | 70.5% | 88% | 91.3% | 90.3% | 82.1% | 91.6% | 84.2% | 80.6% | 82.3% | 78.3% | 73.7% | 51.7% | 86.1% | 85.4% | 83% | 86.9% | 79.6% | 84.8% | 81.3% | 76.7% | 71.3% | 70.6% | 53.7%
COC/1=C/C=C2\C(=C/C1=O)[C@H](CCC3=CC(=C(OC)C(=C23)OC)OC)NC(C)=O | 45.1% | 26.4% | 14.5% | 12.8% | 10.9% | 9.53% | 6.89% | 4.02% | 3.71% | 3.18% | 1.19% | 32.3% | 19.7% | 15.6% | 10.3% | 9.46% | 7.35% | 5.7% | 4.23% | 4.86% | 3.24% | 2.12% | 41.3% | 34.3% | 21.5% | 16% | 13.2% | 8.83% | 8.91% | 4.52% | 4.83% | 3.55% | 1.22%
O=C1Nc2ccc(I)cc2/C1=C/c1cc(Br)c(O)c(Br)c1 | 103% | 100% | 103% | 105% | 109% | 105% | 108% | 102% | 102% | 98.2% | 86.4% | 99% | 110% | 106% | 103% | 101% | 104% | 102% | 104% | 101% | 96.7% | 79% | 106% | 111% | 110% | 107% | 103% | 111% | 108% | 101% | 100% | 93.4% | 84%
O=C\1N(N\C=C1[N]2C=CN=N2)C3=NC=NC(=C3)N4CCOCC4 | 78.4% | 81.7% | 76.7% | 82.8% | 56.6% | 32.5% | 18.6% | 20.6% | 19.2% | 15.9% | 8.11% | 68.7% | 82.9% | 76.4% | 81% | 74.8% | 46.8% | 13.4% | 30.9% | 16.8% | 15.2% | 11.9% | 74.2% | 83.1% | 78.1% | 78.6% | 72.2% | 47.2% | 34.4% | 38.9% | 20.8% | 26.8% | 17%
Oc1cccc(-c2nc(N3CCOCC3)c3oc4ncccc4c3n2)c1 | 118% | 119% | 123% | 123% | 117% | 121% | 131% | 118% | 116% | 79.2% | 73.3% | 122% | 114% | 132% | 129% | 110% | 102% | 80.8% | 79% | 108% | 94.6% | 75.3% | 121% | 123% | 119% | 126% | 113% | 110% | 98.4% | 81.5% | 114% | 108% | 95.7%
c1ccc(CNc2nc(N3CCOc4ccccc43)nc3c2CCCC3)cc1 | 101% | 102% | 107% | 108% | 117% | 99.5% | 128% | 115% | 109% | 107% | 107% | 102% | 99.9% | 100% | 106% | 105% | 110% | 111% | 106% | 108% | 100% | 96.9% | 102% | 112% | 107% | 114% | 110% | 105% | 110% | 116% | 105% | 103% | 104%
CC/1=C(/C(CC(=O)N1)C2=CC=C(C=C2)C(F)(F)F)C(=O)NC3=C(F)C=C4[NH]N=CC4=C3 (centres undefined) | 93.5% | 103% | 101% | 102% | 101% | 99.1% | 100% | 97.3% | 98.4% | 58.6% | 44.6% | 96.2% | 104% | 102% | 100% | 108% | 99.9% | 104% | 98.3% | 98.3% | 66.9% | 62% | 95.3% | 99.8% | 99.9% | 101% | 104% | 105% | 107% | 96.9% | 107% | 66.5% | 47.6%
C[C@]12CC[C@H]3[C@@H](CCC/4=C/C(=O)CC[C@]34C)[C@@H]1CC[C@@H]2O | 111% | 121% | 121% | 126% | 128% | 124% | 128% | 132% | 126% | 125% | 127% |  |  |  |  |  |  |  |  |  |  |  |  |  |  |  |  |  |  |  |  |  | 
CN1C(=O)C[C@H](C(=O)N[C@@H](Cc2cnc[nH]2)C(=O)N2CCC[C@H]2C(N)=O)NC1=O |  |  |  |  |  |  |  |  |  |  |  |  |  |  |  |  |  |  |  |  |  |  | 114% | 128% | 121% | 115% | 132% | 123% | 118% | 120% | 119% | 119% | 90.6%
COc1cc2nc(-c3cc(F)ccc3O)nc(N[C@@H]3CNC[C@H]3C(C)(C)O)c2cc1OC | 104% | 104% | 106% | 110% | 110% | 109% | 114% | 120% | 80.5% | 76.6% | 56.5% | 108% | 104% | 111% | 111% | 118% | 128% | 119% | 129% | 83.5% | 67.8% | 44.3% | 116% | 123% | 117% | 113% | 121% | 116% | 124% | 115% | 69.6% | 48.5% | 37.5%
CC[C@@]1(O)C(=O)OC\C2=C1\C=C\3N(CC4=C3N=C5C=CC=CC5=C4)C2=O | 122% | 120% | 107% | 86.1% | 13.3% | 10.1% | 7.26% | 5.09% | 4.83% | 3.78% | 5.54% | 115% | 113% | 116% | 69.9% | 10.9% | 7.97% | 6.35% | 4.58% | 3.68% | 3.91% | 6.1% | 115% | 115% | 107% | 59.8% | 16.8% | 9.84% | 7.6% | 5.62% | 4.44% | 4.32% | 6.06%
CN[C@@H](C)C(=O)N[C@H]1CN(C(=O)CC(C)C)CC[C@H]2CC[C@@H](C(=O)NC(c3ccccc3)c3ccccc3)N2C1=O | 98.3% | 104% | 107% | 111% | 110% | 102% | 103% | 100% | 96.7% | 14.8% | 10.2% | 96.8% | 110% | 109% | 111% | 114% | 112% | 112% | 108% | 87.3% | 18.1% | 10.2% | 90.1% | 113% | 101% | 115% | 105% | 111% | 112% | 107% | 97.8% | 43.3% | 16.1%
CC[C@H](C)C(=O)O[C@H]1C[C@H](O)\C=C2\C=C/[C@H](C)[C@H](CC[C@@H](O)C[C@@H](O)CC(O)=O)[C@@H]12 | 112% | 116% | 105% | 112% | 111% | 109% | 107% | 97.1% | 98.2% | 96.1% | 86.7% | 107% | 106% | 107% | 113% | 116% | 110% | 106% | 104% | 98.1% | 98.9% | 96.5% | 114% | 102% | 109% | 109% | 111% | 117% | 106% | 106% | 105% | 101% | 92.1%
O=C(O)/C=C/c1ccc(O)c(O)c1 | 118% | 113% | 105% | 112% | 110% | 103% | 107% | 99.2% | 105% | 88.3% | 18.3% | 106% | 111% | 111% | 112% | 108% | 106% | 113% | 117% | 105% | 93.4% | 6.72% | 100% | 120% | 105% | 116% | 117% | 110% | 115% | 103% | 99.7% | 88.7% | 7.01%
Nc1nc(N)c2nc(-c3cccc(O)c3)c(-c3cccc(O)c3)nc2n1 | 117% | 113% | 113% | 110% | 120% | 117% | 94.6% | 89.9% | 81.2% | 72.2% | 55.2% | 108% | 117% | 113% | 109% | 122% | 112% | 118% | 118% | 101% | 89% | 28.1% | 111% | 116% | 113% | 123% | 120% | 114% | 107% | 116% | 108% | 95.5% | 52.1%
CN1CCCC(CC1)N2\N=C(CC3=CC=C(Cl)C=C3)/C4=C(C=CC=C4)C2=O (centres undefined) | 112% | 112% | 116% | 111% | 123% | 112% | 119% | 112% | 116% | 94.5% | 51.9% | 109% | 105% | 113% | 116% | 117% | 126% | 123% | 121% | 122% | 114% | 66.2% | 109% | 109% | 109% | 113% | 124% | 128% | 121% | 114% | 118% | 103% | 65.9%
